{
  "source": "paper PMC8097023",
  "about": "“Structures of a non-ribosomal peptide synthetase condensation domain suggest the basis of substrate selectivity” (Nature Communications, 2021)",
  "key": {"[1]": {"target": "T1, PCP2-C3 didomain of fuscachelin NRPS FscG (Thermobifida fusca, UniProt Q47NR9)", "T1 construct": "gene Tfu_1867; PCP2-C3 didomain fragment; C3 = residues 2558-2999, PPant site S2514; His-SUMO tag (pOPIN-S) cleaved; made in E. coli BL21(DE3) entD-; monomeric, two copies in the asymmetric unit, PCP2 at the acceptor site of the other chain", "T1 sequence (Q47NR9 2481-3008)": "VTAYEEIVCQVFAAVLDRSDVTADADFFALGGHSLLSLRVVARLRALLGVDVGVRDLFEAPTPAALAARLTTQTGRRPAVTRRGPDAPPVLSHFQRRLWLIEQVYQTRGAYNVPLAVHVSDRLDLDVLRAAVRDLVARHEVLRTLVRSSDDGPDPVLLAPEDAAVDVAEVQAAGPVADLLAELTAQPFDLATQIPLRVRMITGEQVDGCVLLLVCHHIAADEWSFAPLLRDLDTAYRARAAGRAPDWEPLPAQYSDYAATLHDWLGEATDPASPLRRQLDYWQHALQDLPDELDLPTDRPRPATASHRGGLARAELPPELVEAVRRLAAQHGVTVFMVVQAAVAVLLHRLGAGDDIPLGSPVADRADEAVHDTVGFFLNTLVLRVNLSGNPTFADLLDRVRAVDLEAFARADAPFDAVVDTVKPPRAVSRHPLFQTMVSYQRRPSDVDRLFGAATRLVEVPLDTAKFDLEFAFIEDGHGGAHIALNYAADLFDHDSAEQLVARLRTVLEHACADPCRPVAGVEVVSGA", "experiment": "X-ray crystal structure, […] Å", "type": "binding", "details": "covalent; PPant on S2514 of PCP2; arm at C3 acceptor entrance, kept out of the active site by R2577"}, "[2]": {"target": "T2, PCP2-C3 didomain of fuscachelin NRPS FscG (Thermobifida fusca, UniProt Q47NR9, R2577G)", "T2 construct": "gene Tfu_1867; PCP2-C3 didomain fragment; C3 = residues 2558-2999, PPant site S2514; His-SUMO tag (pOPIN-S) cleaved; made in E. coli BL21(DE3) entD-; monomeric, two copies in the asymmetric unit, PCP2 at the acceptor site of the other chain", "T2 sequence (Q47NR9 entry or part of it R2577G)": "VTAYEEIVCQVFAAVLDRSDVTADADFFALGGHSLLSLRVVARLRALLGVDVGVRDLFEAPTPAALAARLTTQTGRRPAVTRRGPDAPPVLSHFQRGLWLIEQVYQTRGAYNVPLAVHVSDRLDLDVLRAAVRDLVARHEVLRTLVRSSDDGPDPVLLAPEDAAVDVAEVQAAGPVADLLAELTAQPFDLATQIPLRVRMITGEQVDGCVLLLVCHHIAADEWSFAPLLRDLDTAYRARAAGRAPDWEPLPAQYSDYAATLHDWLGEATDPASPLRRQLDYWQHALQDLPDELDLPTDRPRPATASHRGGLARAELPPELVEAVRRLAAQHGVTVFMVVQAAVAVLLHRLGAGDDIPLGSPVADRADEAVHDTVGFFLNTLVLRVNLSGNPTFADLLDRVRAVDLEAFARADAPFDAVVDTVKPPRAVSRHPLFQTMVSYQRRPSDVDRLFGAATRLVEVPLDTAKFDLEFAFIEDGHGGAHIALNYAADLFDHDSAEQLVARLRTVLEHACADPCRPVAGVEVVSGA", "experiment": "X-ray crystal structure, […] Å", "type": "binding", "details": "covalent; PPant on S2514 of PCP2, fully extended through the acceptor channel into the C3 active site"}},
  "data": [
    {"compound": "CC(C)(COP(=O)(O)O)[C@@H](O)C(=O)NCCC(=O)NCCS", "note": "[PPant]", "values": [
      {"measurement": "X-ray crystal structure, 2.2 Å", "setting": "[1]", "result": "Having confirmed the presence of a PPant arm, we modeled this into the electron density"},
      {"measurement": "X-ray crystal structure, 2 Å", "setting": "[2]", "result": "PPant moiety, which now fully extends thought the acceptor channel into the active site"}
    ]}
  ]
}
